Legend:
Phytophthora infestans = experiment: whole plant or invertebrate; type: in vivo; details: in Solanum lycopersicum, foliar, read-out: control of Phytophthora infestans
Plasmopara viticola = experiment: whole plant or invertebrate; type: in vivo; details: foliar
Pythium ultimum = Pythium ultimum / liquid culture (seedling damping off); type: cell-based; details: Globisporangium ultimum, growth inhibition determined photometrically, compared to untreated control
Method: Pythium ultimum/Liquid Culture (Seedling Damping Off)
Mycelia fragments and oospores of a newly grown liquid culture of the fungus are directly mixed into nutrient broth (PDB potato dextrose broth). After placing a (DMSO) solution of test compound into a microtiter plate (96-well format), the nutrient broth containing the fungal mycelia/spore mixture is added.
The test plates are incubated at 24° C. and the inhibition of growth is determined photometrically 2-3 days after application.

COC(=O)Nc1ccc(-c2cnc3ccc(C(=O)N4CCCc5c4ccc(F)c5F)cn23)cn1 [Compound 21, methyl N-[5-[6-(5,6-difluoro-3,4-dihydro-2H-quinoline-1-carbonyl)imidazo[1,2-a]pyridin-3-yl]-2-pyridyl]carbamate]
≥ 80%: pest or weed control at 200 ppm (Phytophthora infestans) | pest or weed control at 200 ppm (Plasmopara viticola) | inhibition of growth at 20 ppm (Pythium ultimum)

COC(=O)Nc1ccc(-c2cnc3c(C)cc(C(=O)N4CCN(C)c5cc(F)ccc54)cn23)cn1 [Compound 2, methyl N-[5-[6-(6-fluoro-4-methyl-2,3-dihydroquinoxaline-1-carbonyl)-8-methyl-imidazo[1,2-a]pyridin-3-yl]-2-pyridyl]carbamate]
≥ 80%: pest or weed control at 200 ppm (Phytophthora infestans) | pest or weed control at 200 ppm (Plasmopara viticola) | inhibition of growth at 20 ppm (Pythium ultimum)

COC(=O)Nc1ccc(-c2cnc3ccc(C(=O)N4CCN(C5CC5)c5cc(F)ccc54)cn23)cn1 [Compound 51, methyl N-[5-[6-(4-cyclopropyl-6-fluoro-2,3-dihydroquinoxaline-1-carbonyl)imidazo[1,2-a]pyridin-3-yl]-2-pyridyl]carbamate]
≥ 80%: pest or weed control at 200 ppm (Phytophthora infestans) | pest or weed control at 200 ppm (Plasmopara viticola) | inhibition of growth at 20 ppm (Pythium ultimum)

COC(=O)Nc1ccc(-c2cnc3ccc(C(=O)N4CC(C(=O)OC)Cc5ccccc54)cn23)cn1 (stereo not drawn) [Compound 11, methyl 1-[3-[6-(methoxycarbonylamino)-3-pyridyl]imidazo[1,2-a]pyridine-6-carbonyl]-3,4-dihydro-2H-quinoline-3-carboxylate]
≥ 80%: pest or weed control at 200 ppm (Phytophthora infestans) | pest or weed control at 200 ppm (Plasmopara viticola) | inhibition of growth at 20 ppm (Pythium ultimum)

COC(=O)Nc1ccc(-c2cnc3ccc(C(=O)N4CCCc5cc(F)c(OC)cc54)cn23)cn1 [Compound 64, methyl N-[5-[6-(6-fluoro-7-methoxy-3,4-dihydro-2H-quinoline-1-carbonyl)imidazo[1,2-a]pyridin-3-yl]-2-pyridyl]carbamate]
≥ 80%: pest or weed control at 200 ppm (Phytophthora infestans) | pest or weed control at 200 ppm (Plasmopara viticola) | inhibition of growth at 20 ppm (Pythium ultimum)

CCOC(=O)C1Cc2cc(F)ccc2N(C(=O)c2ccc3ncc(-c4ccc(NC(=O)OC)nc4)n3c2)C1 (stereo not drawn) [Compound 35, ethyl 6-fluoro-1-[3-[6-(methoxycarbonylamino)-3-pyridyl]imidazo[1,2-a]pyridine-6-carbonyl]-3,4-dihydro-2H-quinoline-3-carboxylate]
≥ 80%: pest or weed control at 200 ppm (Phytophthora infestans) | pest or weed control at 200 ppm (Plasmopara viticola) | inhibition of growth at 20 ppm (Pythium ultimum)

COC(=O)Nc1ccc(-c2cnc3ccc(C(=O)N4CCCc5cc(F)ccc54)cn23)cn1 [Compound 66, methyl N-[5-[6-(6-fluoro-3,4-dihydro-2H-quinoline-1-carbonyl)imidazo[1,2-a]pyridin-3-yl]-2-pyridyl]carbamate]
≥ 80%: pest or weed control at 200 ppm (Phytophthora infestans) | pest or weed control at 200 ppm (Plasmopara viticola) | inhibition of growth at 20 ppm (Pythium ultimum)

COC(=O)Nc1ccc(-c2cnc3ccc(C(=O)N4CCN(C)c5cc(F)ccc54)cn23)cn1 [Compound 3, methyl N-[5-[6-(6-fluoro-4-methyl-2,3-dihydroquinoxaline-1-carbonyl)imidazo[1,2-a]pyridin-3-yl]-2-pyridyl]carbamate]
≥ 80%: pest or weed control at 200 ppm (Phytophthora infestans) | pest or weed control at 200 ppm (Plasmopara viticola) | inhibition of growth at 20 ppm (Pythium ultimum)

COC(=O)Nc1ccc(-c2cnc3ccc(C(=O)N(C)c4ccc(F)cc4OC)cn23)cn1 [Compound 30, methyl N-[5-[6-[(4-fluoro-2-methoxy-phenyl)-methyl-carbamoyl]imidazo[1,2-a]pyridin-3-yl]-2-pyridyl]carbamate]
≥ 80%: pest or weed control at 200 ppm (Phytophthora infestans) | pest or weed control at 200 ppm (Plasmopara viticola) | inhibition of growth at 20 ppm (Pythium ultimum)

Source: patent US20260271933A1 (priority 2023, published 2026)
